Values joined by “and” are separate entries in the source; they are usually repeats but may differ in a detail not shown here. Identical values can stand only once.
What was measured:
U138-MG cells [1] = test: Boyden chamber Matrigel invasion, U138-MG; type: cell-based, human; details: for invasion, % of basal, average 2 expts: mean of 2 expts; for invasion, % of basal, average expt 1: mean of expt 1; for invasion, % of basal, average expt 2: mean of expt 2; for invasion, % of basal, T-test list: single replicates of both expts
Method: The migration and invasion assays were performed using Boyden chambers and 8 µm pore size PVP-free filters coated with 50 µg/mL of collagen type VI (Sigma), as previously described. For the invasion assays, collagen-coated filters were further coated with 50 µg/mL Matrigel^TM (Sigma). Briefly, 11 × 10^4 U87-MG, 4 × 10^4 U251-MG, or 4 × 10^4 U138-MG/sample were pre-treated for 40 min at 37 °C with the indicated effectors. Then, the cells were allowed to migrate for 3 h or to invade for 5 h at 37 °C toward 5% FBS in DMEM/0.1% BSA. At the end of both assays, the cells on the lower filter surface were fixed, stained with haematoxylin, and counted under an optical microscope (Zeiss Axiophot, Carl Zeiss, Milan, Italy) at 20× magnification. The migration and invasion experiments were conducted in triplicate for U87-MG and in duplicate for U251-MG and U138-MG. The migrated or invaded cells were reported as percentage of basal migration or invasion in the presence of DMEM/0.1% BSA, taken as 100%, and analyzed as reported in Section 2.11.
Figure 4 Effect of uPAcyclin on matrix invasion of U87-MG, U251-MG, and U138-MG GBM cells. Quantitative analysis of U87-MG (A), U251-MG (B), and U138-MG (C) invasion. A total of 11 × 10^4 U87-MG or […] U251-MG or U138-MG/sample were pre-treated for 40 min at 37 °C with uPAcyclin (100 nM, 1 µM), anti-αV polyclonal (anti-αV-Pclonal) or monoclonal (anti-αV MoAb) antibody, or anti-actin polyclonal antibody (anti-actin), and then assayed in Boyden chambers at 37 °C, either for basal (BSA) or FBS-dependent invasion (5% FBS) for 5 h at 37 °C. Data are expressed as in the legend to Figure 3. Results are expressed as percentages with respect to the basal invasion, considered as 100% (* p-value < 0.05; ** p-value < 0.005; *** p-value < 0.001).

U87-MG cells = test: Wound healing assay, U87-MG; type: cell-based, human; details: for residual space, % of the initial wound: 24 h (untreated 15%)
Method: The wound healing assay or scratch test was performed as previously reported. Briefly, 6 × 10^3 U87-MG cells were seeded in multiwell-12 plates containing culture inserts for live cell analysis (Ibidi, Gmbh, Martinsried, Germany) and grown to confluence in DMEM/10% FBS for 24 h. After removing the inserts, the cells were pre-treated for 40 min at 37 °C with uPAcyclin or diluents at the indicated concentrations, and then incubated in DMEM/3% FBS for 24 h. The images were taken using the Inverted Microscope Leica DMI6000 DFC 402 (Leica Microsystems, Milan, Italy). A total of 10 × 10^4 C6 cells were grown to confluence in 12-well plates, in the presence of DMEM/10% FBS. Then, the cell monolayers were wounded with a yellow tip, pre-incubated with uPAcyclin (10 pM and 100 nM) or diluents, and incubated in DMEM/2.5% FBS for 16 h. The images were obtained using the Inverted Axiovert 25 Microscope, equipped with the Zen 3.3 Software. To quantitate cell migration, a rectangle covering the wound edges is drawn on the T0 image and is further applied to the single photograms of each sample. The average margin distance is measured at three points and the results are expressed as percentage wound width of the T0 distance, taken as 100%.
Figure 5 Wound healing assay of U87-MG and C6 cells, in the presence of uPAcyclin. (A) U87-MG cells were grown to confluence in multiwell-12 plates with inserts, pre-incubated with uPAcyclin (10 pM or 100 nM) or diluents for 40 min at 37 °C, and then exposed to 3% FBS, in the presence of uPAcyclin or diluents, as reported. Images were taken at time 0 (T0) and 24 h (T24) and representative images are shown (50× total magnification, scale bar: 250 µm). […] (C) For both U87-MG and C6, the wound width at time 0 is taken as 100% and the wound width at T24 or T16 is calculated as relative to that (* p-value < 0.05; ** p-value < 0.005; *** p-value < 0.001).

U138-MG cells [2] = test: Cell viability/proliferation (Trypan blue), U138-MG; type: cell-based, human; details: 1 nM or 100 nM, 72–96 h
Method: Cell viability was tested in DMEM/10% FBS, in the presence of 1 nM or 100 nM uPAcyclin, either by Trypan blue exclusion or by thiazolyl blue tetrazolium bromide (MTT) assays, as specified in the figure legends. For the Trypan blue assay, 4 × 10^4 U87-MG, U251-MG, U138-MG, and C6 cells/sample were grown in 12-well plates, and followed for 24, 48 and 72 h. As a negative control, the cells were grown in a serum-free medium. Then, the cells were detached, stained with a 0.2% (w/v) Trypan blue solution, counted using a Burker chamber (T0 = 100%), and reported as number of viable cells/total.

breast cancer cell lines = details: ref Belli et al. [25]; cited from earlier work
[3] = 100 nM, 5% FBS, 5 h, expt 1, duplicates
[4] = 100 nM, 5% FBS, 5 h, expt 2, duplicates
[5] = 1 µM, 5% FBS, 5 h, expt 1, duplicates
[6] = 1 µM, 5% FBS, 5 h, expt 2, duplicates

Substance: Ac-K^1P[ESPPEELK^10]-NH2 (sidechain bridge or staple) [uPAcyclin]
- reduction in invasion (U138-MG cells [1]; 100 nM, U138-MG, 5% FBS, 5 h): 50–60%
- invaded cell number/field (U138-MG cells [1]; [3]): 10 cell number/field and 8 cell number/field
- invasion, % of basal (U138-MG cells [1]; [3]): 143% and 114%
- invaded cell number/field (U138-MG cells [1]; [4]): 9 cell number/field and 8 cell number/field
- invasion, % of basal (U138-MG cells [1]; [4]): 150% and 133%
- invasion, % of basal, average 2 expts (U138-MG cells [1]; 100 nM, 5% FBS, 5 h): 135%
- invasion, % of basal, average expt 1 (U138-MG cells [1]; 100 nM, 5% FBS, 5 h): 129%
- invasion, % of basal, average expt 2 (U138-MG cells [1]; 100 nM, 5% FBS, 5 h): 142%
- invasion, % of basal, T-test list (U138-MG cells [1]; 100 nM): 143 and 114 and 150 and 133
- invasion, in words (U138-MG cells [1]; 1 µM, U138-MG, 5% FBS, 5 h): reduced invasion to basal levels
- invaded cell number/field (U138-MG cells [1]; [5]): 7 cell number/field and 6 cell number/field
- invasion, % of basal (U138-MG cells [1]; [5]): 100% and 86%
- invaded cell number/field (U138-MG cells [1]; [6]): 6 cell number/field and 5 cell number/field
- invasion, % of basal (U138-MG cells [1]; [6]): 100% and 83%
- invasion, % of basal, average 2 expts (U138-MG cells [1]; 1 µM, 5% FBS, 5 h): 92%
- invasion, % of basal, average expt 1 (U138-MG cells [1]; 1 µM, 5% FBS, 5 h): 93%
- invasion, % of basal, average expt 2 (U138-MG cells [1]; 1 µM, 5% FBS, 5 h): 92%
- invasion, % of basal, T-test list (U138-MG cells [1]; 1 µM): 100 and 86 and 83
- residual space, % of the initial wound (U87-MG cells; 10 pM): 30%
- residual space, % of the initial wound (U87-MG cells; 100 nM): 60%
- reduction of wound healing rate closure (U87-MG cells; abstract): 50%
- proliferation/viability (U138-MG cells [2]): unaffected by uPAcyclin, regardless of the concentration employed
- migration and invasion inhibition (breast cancer cell lines): potent inhibitor of migration and invasion of breast cancer cell lines

Source: PMC10571957, “αV-Integrin-Dependent Inhibition of Glioblastoma Cell Migration, Invasion and Vasculogenic Mimicry by the uPAcyclin Decapeptide” (Cancers, 2023)
